# How the values were obtained:
# [1] = tested on: HCT-116 human colon cancer xenografts; assay: In vivo anti-tumor test, HCT-116 subcutaneous flank xenografts; set-up: species or system nu/nu female mice; conditions: 10 mg/kg i.p. repeated, 11 treated animals, day 10, from repeated i.p. injection
# Experimental: In Vivo Testing for Anti-Tumor Activity
# Subcutaneous flank xenografts of the human colon cancer cell line, HCT-116 in nu/nu female mice (Harlan) were used to study the anti-tumor effects of Compound 1 in vivo. All animal experiments complied with institutional animal care guidelines. 10^7 HCT-116 cells (˜0.1 ml packed cells) were xenografted from culture in DMEM supplemented with 10% FBS into […]. Treatment began when measurable tumors developed about 3 days after inoculation. Compound 1 (10 mg/kg) was diluted into 40 μl DMSO and treated intraperitoneally (i.p.) 11 animals received JMM-III-231 10 mg/kg, i.p., at days indicated by arrows, and 11 received DMSO control. Tumors were measured on days indicated. […] Error bars represent standard error of the mean.
# Raji cells = conditions: Tomoda et al. 1991; cited from earlier work
# [2] = molecular target: rat liver acyl-CoA synthetase; conditions: Tomoda et al. 1987; Omura et al. 1986; read-out: 50% inhibition of rat liver acyl-CoA synthetase; cited from earlier work
# viral HIV protease = viral HIV protease (Human immunodeficiency virus type 1 group M subtype B, UniProt P04585); conditions: Moelling et al. 1990; cited from earlier work
structure (smiles),measurement,setting,value
"C=CCNC(=O)C1C(=C)C(=O)O[C@H]1CCCCCCCC (mixture of isomers) [Compound 1, (±)-α-Methylene-γ-butyrolactone-5-octyl-4-allyl amide]",Death of treated mice in xenograft study,[1],One Compound 1 treated mouse died on day 10
"CCCC=CCC=CC=CC=NN=NO [Triacsin C, 1-hydroxy-3-(E, E, E-2′,4′,7′-undecatrienylidine) triazene]",concentration causing growth inhibition in Raji cells,Raji cells,1.0 µM
same,IC50,[2],8.7 µM
"C/C=C/C/C=C/CCC(=O)[C@H]1O[C@H]1C(N)=O [cerulenin, (2S,3R)-2,3-epoxy-4-oxo-7,10 dodecadienoyl amide]",concentration for inhibition of viral HIV protease,viral HIV protease,5 mg/mL

# From patent US20060241177A1, “Novel compounds, pharmaceutical compositions containing same, and methods of use for same” (priority 2002, published 2006)
